Assay results reported in PubChem BioAssay AID1963429 (Molecular Pharmacology Branch, DTP, NCI, 2024).
pIC50: −log10 of the molar value. Where “and” joins values, the source holds several entries; their conditions need not be identical. Equal values may be shown once.

System: 126254-015-R-J1-PDC complex spheroid growth, % test/control
Assay: Anticancer human tumor 126254-015-R-J1-PDC patient-derived soft tissue sarcoma cell line growth inhibition [Asc]
Conditions: for viability, T/C: stronger effect = lower value; active = viability on the fitted dose curve at most 10% of control; inactive = the rest
Method in brief: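 Concentration series start at each agent's clinical Cmax, or at 10 microM when none is established, and drop in half-log steps; agents are applied alone or together to complex spheroids built with HUVEC and hMSC.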
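Also: spheroids exposed to compound for seven days.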
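For viability, T/C in this document: 100% = DMSO vehicle control wells.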

NC(=O)C(=Cn1cnc(-c2cc(C(F)(F)F)cc(C(F)(F)F)c2)n1)c1cncnc1 + Cc1c(S(C)(=O)=O)c(-c2cc(F)cc(N3CCN(c4ccc(NS(=O)(=O)c5ccc(NC(CCN6CCC(C(=O)OCCCP(=O)(O)O)CC6)CSc6ccccc6)c(S(=O)(=O)C(F)(F)F)c5)cc4)CC3)c2)c(-c2ccc(Cl)cc2)n1C(C)C
inactive: viability, T/C (second compound 0.1 µM, first compound 0.000949 µM) 98.5% | viability, T/C (second compound 0.1 µM, first compound 0.003 µM) 93.8% | viability, T/C (second compound 0.1 µM, first compound 0.00949 µM) 74.5% | viability, T/C (second compound 0.1 µM, first compound 0.03 µM) 53.2% | viability, T/C (second compound 0.1 µM, first compound 0.0949 µM) 22% | viability, T/C (second compound 0.1 µM, first compound 0.3 µM) 11% | viability, T/C (second compound 0.316 µM, first compound 0.000949 µM) 78.1% | viability, T/C (second compound 0.316 µM, first compound 0.003 µM) 82.4% | viability, T/C (second compound 0.316 µM, first compound 0.00949 µM) 70% | viability, T/C (second compound 0.316 µM, first compound 0.03 µM) 58% | viability, T/C (second compound 0.316 µM, first compound 0.0949 µM) 23% | viability, T/C (second compound 1 µM, first compound 0.000949 µM) 83.4% | viability, T/C (second compound 1 µM, first compound 0.003 µM) 74% | viability, T/C (second compound 1 µM, first compound 0.00949 µM) 76.6% | viability, T/C (second compound 1 µM, first compound 0.03 µM) 49.5% | viability, T/C (second compound 1 µM, first compound 0.0949 µM) 23% | viability, T/C (second compound 3.16 µM, first compound 0.000949 µM) 94.8% | viability, T/C (second compound 3.16 µM, first compound 0.003 µM) 82.7% | viability, T/C (second compound 3.16 µM, first compound 0.00949 µM) 77.5% | viability, T/C (second compound 3.16 µM, first compound 0.03 µM) 50.6% | viability, T/C (second compound 3.16 µM, first compound 0.0949 µM) 19.3% | viability, T/C (second compound 10 µM, first compound 0.000949 µM) 85.6% | viability, T/C (second compound 10 µM, first compound 0.003 µM) 77.2% | viability, T/C (second compound 10 µM, first compound 0.00949 µM) 68.4% | viability, T/C (second compound 10 µM, first compound 0.03 µM) 49.9% | viability, T/C (second compound 10 µM, first compound 0.0949 µM) 19.3%
active: viability, T/C (second compound 0.316 µM, first compound 0.3 µM) 8.76% | viability, T/C (second compound 1 µM, first compound 0.3 µM) 7.77% | viability, T/C (second compound 3.16 µM, first compound 0.3 µM) 7.61% | viability, T/C (second compound 10 µM, first compound 0.3 µM) 7.73%
7.53: pIC50 (curve of first compound, second compound 3.16 µM)
7.58: pIC50 (curve of first compound, second compound 10 µM)
7.52: pIC50 (curve of first compound, second compound 0.1 µM)
7.50: pIC50 (curve of first compound, second compound 1 µM)
7.43: pIC50 (curve of first compound, second compound 0.316 µM)

CNC(C)C(=O)NC1CN(S(=O)(=O)c2cccc(S(=O)(=O)N3CCC4CCC(C(=O)NC(c5ccccc5)c5ccccc5)N4C(=O)C(NC(=O)C(C)NC)C3)c2)CCC2CCC(C(=O)NC(c3ccccc3)c3ccccc3)N2C1=O (stereo not drawn)
inactive: viability, T/C (compound 0.00316 µM) 94.8% and 99.9% | viability, T/C (compound 0.01 µM) 86.8% [middle of 15 runs] | viability, T/C (compound 0.0316 µM) 76.6% [middle of 15 runs] | viability, T/C (compound 0.1 µM) 64.3% [middle of 15 runs] | viability, T/C (compound 0.316 µM) 59.9% [middle of 15 runs] | viability, T/C (compound 1 µM) 55.5% [middle of 15 runs]
< 6.00: pIC50 (compound alone, run of 10/03/2022)
< 6.00 and 6.07: pIC50 (curve of compound)
